How the values were obtained:
FLT3-ITD = biological target: T1, FLT3-ITD (Homo sapiens, UniProt P36888); test: AlphaScreen kinase assay with recombinant enzyme, FLT3-ITD; assay type: biochemical; settings: 8pt; read-out: FLT3_ITD 8pt: IC50
T1 sequence (P36888 1-993): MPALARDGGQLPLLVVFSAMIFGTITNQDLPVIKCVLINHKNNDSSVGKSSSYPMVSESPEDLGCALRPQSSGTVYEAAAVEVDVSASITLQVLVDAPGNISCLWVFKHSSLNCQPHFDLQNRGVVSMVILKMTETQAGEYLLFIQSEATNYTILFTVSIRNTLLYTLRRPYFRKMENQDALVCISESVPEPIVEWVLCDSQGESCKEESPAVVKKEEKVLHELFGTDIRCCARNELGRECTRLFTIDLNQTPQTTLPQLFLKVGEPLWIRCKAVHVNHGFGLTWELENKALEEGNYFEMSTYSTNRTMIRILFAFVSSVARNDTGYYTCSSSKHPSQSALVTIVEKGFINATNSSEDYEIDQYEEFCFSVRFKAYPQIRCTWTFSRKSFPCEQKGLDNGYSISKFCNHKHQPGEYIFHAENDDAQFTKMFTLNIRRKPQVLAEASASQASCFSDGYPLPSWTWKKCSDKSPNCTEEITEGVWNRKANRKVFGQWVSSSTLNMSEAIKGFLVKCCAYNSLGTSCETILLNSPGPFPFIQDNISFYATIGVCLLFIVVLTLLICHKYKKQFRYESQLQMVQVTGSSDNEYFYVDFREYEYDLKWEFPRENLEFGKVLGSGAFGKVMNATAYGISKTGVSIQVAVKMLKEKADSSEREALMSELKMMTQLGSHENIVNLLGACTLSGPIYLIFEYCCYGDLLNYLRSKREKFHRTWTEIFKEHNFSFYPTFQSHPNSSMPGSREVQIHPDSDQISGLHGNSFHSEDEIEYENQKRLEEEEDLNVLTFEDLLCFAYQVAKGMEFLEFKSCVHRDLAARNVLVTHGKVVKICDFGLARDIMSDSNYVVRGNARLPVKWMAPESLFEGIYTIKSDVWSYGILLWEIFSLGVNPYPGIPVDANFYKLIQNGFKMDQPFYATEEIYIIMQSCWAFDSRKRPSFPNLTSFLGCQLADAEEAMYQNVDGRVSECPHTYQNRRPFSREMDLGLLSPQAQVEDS
In short: (§1)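 AlphaScreen, biotinylated poly(Glu4-Tyr) 30 nM final; PY20 anti-pTyr acceptor and streptavidin donor beads 10 μg/mL; IC50 final conc. 10 μM (FLT3-D835Y, FLT3-ITD) / 100 μM (c-KIT); detection incubations 20 + 60 min RT; 580 nm emission.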

FLT3-D835Y = biological target: T2, FLT3-D835Y (Homo sapiens, UniProt P36888, D835Y); test: AlphaScreen kinase assay with recombinant enzyme, FLT3-D835Y; assay type: biochemical; settings: 8pt, GMean
T2 construct: purchased Invitrogen PV3967
T2 sequence (P36888 27-993 D835Y): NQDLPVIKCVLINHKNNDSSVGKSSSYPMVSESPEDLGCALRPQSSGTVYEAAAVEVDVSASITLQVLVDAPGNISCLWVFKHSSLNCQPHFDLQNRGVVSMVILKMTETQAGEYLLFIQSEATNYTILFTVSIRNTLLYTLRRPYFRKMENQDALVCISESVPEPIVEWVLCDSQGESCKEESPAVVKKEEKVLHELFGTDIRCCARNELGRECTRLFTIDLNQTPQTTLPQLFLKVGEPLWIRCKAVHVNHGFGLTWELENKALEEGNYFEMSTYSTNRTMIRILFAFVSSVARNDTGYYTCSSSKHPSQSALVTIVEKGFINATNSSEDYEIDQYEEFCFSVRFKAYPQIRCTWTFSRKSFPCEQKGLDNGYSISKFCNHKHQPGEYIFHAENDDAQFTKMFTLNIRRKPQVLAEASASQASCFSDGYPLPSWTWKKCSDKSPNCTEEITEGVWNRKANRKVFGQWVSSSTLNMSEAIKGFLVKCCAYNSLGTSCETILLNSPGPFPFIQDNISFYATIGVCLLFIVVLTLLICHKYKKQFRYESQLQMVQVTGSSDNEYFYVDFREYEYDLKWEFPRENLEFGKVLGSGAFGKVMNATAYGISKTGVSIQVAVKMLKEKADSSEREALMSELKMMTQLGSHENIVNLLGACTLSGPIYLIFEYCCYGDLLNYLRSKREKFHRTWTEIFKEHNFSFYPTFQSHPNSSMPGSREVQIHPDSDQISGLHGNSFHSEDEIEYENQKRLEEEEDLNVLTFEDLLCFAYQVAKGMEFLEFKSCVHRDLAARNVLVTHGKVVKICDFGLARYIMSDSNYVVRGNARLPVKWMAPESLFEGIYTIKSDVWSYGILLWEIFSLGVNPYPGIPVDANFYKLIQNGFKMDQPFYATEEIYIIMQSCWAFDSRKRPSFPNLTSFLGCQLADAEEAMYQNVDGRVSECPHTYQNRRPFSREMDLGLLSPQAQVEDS
In short: as §1

IC50 (FLT3-ITD): 0.0001 to 10 µM
IC50 (FLT3-D835Y): 0.0001 to 10 µM
Compound: COC(=O)C1(C)CCN(C(=O)c2cccc(-c3cnc4[nH]c(-c5ccccc5)cc4c3)n2)CC1 [Compound P-0092, methyl 4-methyl-1-[6-(2-phenyl-1H-pyrrolo[2,3-b]pyridin-5-yl)pyridine-2-carbonyl]piperidine-4-carboxylate]

Reference: patent US9938273B2 (Plexxikon Inc., priority 2015, dated 2018)
